Results taken from US12441730B2, “PRMT5 inhibitors” (Merck Sharp & Dohme LLC, priority 2019, dated 2025).
Like-named read-outs stand apart in the source and are kept apart here.

Key:
[1] = target: T1, Full-length (FL)-PRMT5-MEP50 enzyme complex (Homo sapiens, UniProt O14744); assay: PRMT5-MEP50 Enzyme Methylation Assay (Version B); assay type: biochemical
T1 construct: Full-length (FL)-PRMT5-MEP50 enzyme complex (recombinant proteins from baculovirus-transfected Sf21 cells: FL-PRMT5; MW=73837 kDa and FL-MEP50; MW=38614); made in house; host or cells: baculovirus-transfected Sf21 cells
Method: PRMT5-MEP50 Enzyme Methylation Assay (Version B)
PRMT5/MEP50 biochemical assay is a direct measurement of the methylation activity of the enzyme complex on a short peptide substrate derived from the N-terminus of H4 histone. Methylation experiment was performed with recombinant protein. The assessment of inhibitory effect (IC50) of small molecules was measured by the effectiveness of the compounds to inhibit this reaction.
In this assay, the potency (IC50) of each compound was determined from a twenty-point (1:2 serial dilution; top compound concentration of 100000 nM) titration curve using the following outlined procedure. To each well of a white ProxiPlus 384 well-plate, 100 nL of compound (1% DMSO in final assay volume of 10 μL) was dispensed, followed by the addition of 8 μL of 1× assay buffer (50 mM Bicine pH 8.0, 1 mM DTT, 0.004% Tween20, 0.01% BSA) containing 0.5 nM of Full-length (FL)-PRMT5-MEP50 enzyme complex (recombinant proteins from baculovirus-transfected Sf21 cells: FL-PRMT5; MW=[…] and FL-MEP50; MW=38614). Plates were sealed and placed in a 37° C. humidified chamber for 30 minutes pre-incubation with compounds. Subsequently, each reaction was initiated by the addition of 2 μL 1× assay buffer containing 75 nM biotinylated H4R3 (Me1) peptide, and 15 μM S-(5′-Adenosyl)-L-Methionine Chloride (SAM). The final reaction in each well of 10 μL consists of 0.5 nM PRMT5-MEP50, 75 nM biotinylated-peptide, and 15 μM SAM. Methylation reactions were allowed to proceed for 150 minutes in a sealed plate at 37° C. Reactions were immediately quenched by the addition of 1 μL of 10% formic acid. Plates were then frozen and shipped to SAMDI™ Tech Inc. to determine the percent conversion from […]. EC50 values were determined by non-linear regression according to models for either sigmoidal (4 parameters) or biphasic (7 parameters) dose-response curves.

[2] = tested on: symmetric dimethylation of arginine (SDMA) of PRMT5 substrates in MCF-7 cells; assay: PRMT5 Cell Target Engagement (TE) Assay; assay type: cell-based; conditions: 3 days treatment, SDMA high content imaging
In short: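 MCF-7 cells treated 3 days at 37 °C with a ten-point 1:3 titration from 10000 nM. Fixed cells immunostained with anti-SDMA and Alexa488 secondary; nuclear fluorescence quantified by high-content imaging versus DMSO wells, with IC50 from a 4-parameter fit.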

[3] = second value of 7 parameter biphasic fit, read-out: Enzyme Methylation Assay Version B (EC50 2)
[4] = single EC50 = 4 parameter single site sigmoidal fit, EC50 1 = first value of 7 parameter biphasic fit, read-out: Enzyme Methylation Assay Version B (EC50 or EC50 1)

T1 sequence (O14744 whole entry): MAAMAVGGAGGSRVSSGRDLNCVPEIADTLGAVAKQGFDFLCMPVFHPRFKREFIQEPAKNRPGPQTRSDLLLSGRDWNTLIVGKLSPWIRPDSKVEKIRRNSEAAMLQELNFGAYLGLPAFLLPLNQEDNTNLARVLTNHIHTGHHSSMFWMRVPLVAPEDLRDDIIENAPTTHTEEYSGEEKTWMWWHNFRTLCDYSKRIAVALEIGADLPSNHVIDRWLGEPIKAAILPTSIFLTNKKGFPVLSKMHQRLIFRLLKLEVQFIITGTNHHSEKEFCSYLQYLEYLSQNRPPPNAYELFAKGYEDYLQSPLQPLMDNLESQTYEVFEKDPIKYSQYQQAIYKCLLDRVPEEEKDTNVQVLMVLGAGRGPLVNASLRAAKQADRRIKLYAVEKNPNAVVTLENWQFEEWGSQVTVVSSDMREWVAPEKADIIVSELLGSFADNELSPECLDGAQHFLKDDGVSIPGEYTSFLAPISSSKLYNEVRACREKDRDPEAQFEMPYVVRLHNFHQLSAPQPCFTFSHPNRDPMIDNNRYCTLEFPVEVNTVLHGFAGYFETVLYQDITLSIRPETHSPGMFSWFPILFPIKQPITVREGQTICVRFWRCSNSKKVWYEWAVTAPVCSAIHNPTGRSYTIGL
T1 sequence (Q9BQA1 whole entry partner): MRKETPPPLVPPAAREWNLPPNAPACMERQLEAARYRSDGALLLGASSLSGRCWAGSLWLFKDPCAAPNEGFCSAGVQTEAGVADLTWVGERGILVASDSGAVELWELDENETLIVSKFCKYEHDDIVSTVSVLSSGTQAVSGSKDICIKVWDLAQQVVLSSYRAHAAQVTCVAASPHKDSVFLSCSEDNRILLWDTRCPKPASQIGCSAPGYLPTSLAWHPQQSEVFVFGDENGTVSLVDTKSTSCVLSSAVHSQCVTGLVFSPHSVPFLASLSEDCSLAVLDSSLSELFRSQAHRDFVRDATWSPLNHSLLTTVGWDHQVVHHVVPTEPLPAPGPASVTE

Structure (SMILES) | EC50 [1, 3] [µM] | EC50 [1, 4] [µM] | EC50 [2] [µM]
CCOc1cc(C(=O)N2C3CCC2COC3)ccc1C(=O)N1CCC2(Cc3ccccc3CN2)C(O)C1 (single isomer, unassigned) [Example 87, A diastereomer of {3-ethoxy-4-[(3′-hydroxy-1,4-dihydro-1′H,2H-spiro[isoquinoline-3,4′-piperidin]-1′-yl)carbonyl]phenyl}(3-oxa-8-azabicyclo[3.2.1]oct-8-yl)methanone] | 0.671 | 0.00354 | 0.00916
CC(=O)N1CCC(Nc2cc(C(=O)N3CCC4(Cc5ccccc5CN4)C(O)C3)ncn2)CC1 (single isomer, unassigned) [Example 93, A diastereomer of 1-[4-({6-[(3′-hydroxy-1,4-dihydro-1′H,2H-spiro[isoquinoline-3,4′-piperidin]-1′-yl)carbonyl]-4-pyrimidinyl}amino)-1-piperidinyl]ethanone] | 1.07 | 0.00311 | 0.0273
